Literature values, collected in patent publication US20230000899A1, “ALGINATE, POLYLYSINE, AND SEED PRESERVATIVE NUTRITIONAL PRODUCT AND DIGESTIVE AID” (Reflux Gourmet LLC, priority 2021, published 2023).

Tested on: laboratory mice
Details: certain laboratory mice; administered in high concentrations

In the case of `Oc1ccc(C=Cc2cc(O)cc(O)c2)cc1` [resveratrol], the “extension of life span” value is listed as “up to 50%”.
